Measured values: patent US4576959A, “6-Substituted-4-dialkylaminotetrahydrobenz[c,d]indoles” (priority 1985, dated 1986)
pIC50: −log10 of the molar value.

Legend:
[1] = system: dopamine uptake in bovine striatal membrane; conditions: cited from earlier work
[2] = system: dopamine (metabolites in striatum); experiment: Changes in dopamine metabolites (DOPAC, HVA) in striatum as a measure of dopamine agonist activity; type: in vivo, Wistar rats; conditions: 0.3 mg./kg. s.c., 1 hour before rats were killed, * = statistically significant; for Dopamine Metabolites In Striatum, HVA: control 4.24 ± .27; for Dopamine Metabolites In Striatum, DOPAC: control 5.58 ± .38
Method: (§1) Secondly, as a measure of central serotonin agonist activity, the decrease of serotonin metabolites in brain was measured. Also the measure of dopamine agonist activity was indicated by changes in dopamine metabolites.
(§2) The following protocol was employed. 150-200 g. Wistar rats were given 0.3 mg./kg. subcutaneously of (±)-4-di-n-propylamino-6-substituted-1,3,4,5-tetrahydrobenz[c,d]indole.Then, 60 minutes later each rat was decapitated and the hypothalamus and striatum were dissected out and extracted. The amounts of homovanillic acid (HVA) and 3,4-dihydroxyphenylacetic acid (DOPAC) in the striatum and of 5-hydroxyindoleacetic acid (5HIAA) in the hypothalamus were measured by high-performance liquid chromatography, using electrochemical detection. Serum corticosteroids were also measured. In the table, columns 1 and 2 give the substitution pattern in the compounds of formula IV, columns 3-5, the 5HT or dopamine metabolite concentrations, and column 6, the serum corticosteroids.

[3] = biological target: T1, ^3 H-spiperone (^3 H-SPIP) receptor binding, cerebral cortex (Rattus norvegicus, UniProt P14842); experiment: Inhibition of ^3 H-spiperone (^3 H-SPIP) specific binding in rat cerebral cortex membranes; parameters: species or system male Wistar rats; conditions: ^3 H-spiperone 0.6-0.7 nM, 15 minutes at 37°, pH=7.4, values in nanomoles of inhibitor, read-out: ^3 H-Ligand-IC50, ^3 H-SPIP
T1 construct: The cerebral cortex was dissected out and then homogenized and centrifuged; from tissue; host or cells: cerebral cortex membranes of male Wistar rats
T1 sequence (P14842 whole entry): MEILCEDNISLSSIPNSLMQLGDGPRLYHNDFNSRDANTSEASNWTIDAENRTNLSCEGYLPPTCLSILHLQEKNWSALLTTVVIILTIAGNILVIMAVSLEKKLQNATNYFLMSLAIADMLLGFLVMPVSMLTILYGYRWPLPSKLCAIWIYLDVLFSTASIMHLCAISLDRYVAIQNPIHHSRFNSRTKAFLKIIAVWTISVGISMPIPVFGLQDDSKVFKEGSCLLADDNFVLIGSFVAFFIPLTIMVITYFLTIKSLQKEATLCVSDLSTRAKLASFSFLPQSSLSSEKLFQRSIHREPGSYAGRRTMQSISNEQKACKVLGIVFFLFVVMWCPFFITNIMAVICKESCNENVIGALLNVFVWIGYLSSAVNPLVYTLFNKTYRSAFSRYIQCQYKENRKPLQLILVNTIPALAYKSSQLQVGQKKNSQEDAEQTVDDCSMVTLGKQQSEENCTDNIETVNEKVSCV
Method: Brain tissue was obtained from 150-200 g. male Wistar rats. The cerebral cortex was dissected out and then homogenized and centrifuged according to the method described by Nelson and coworkers, Mol. Pharmacol., 14, 983-995 (1978), using preincubation in buffer without added monoamine oxidase inhibitor in order to eliminate endogenous serotonin. For receptor binding, each sample contained 300-400 μg. of membrane protein and 10 μM pargyline in addition to the ^3 H-ligand in 1 ml. of 0.05M tris buffer, pH=7.4. The assay of serotinin binding was done following the method of Bennett and Snyder, Mol. Pharmacol., 12, 373-389 (1976), and that for tritiated spiperone according to Peroutka and Snyder, Mol. Pharmacol., 16, 687-699 (1979). The samples were incubated for 15 minutes at 37° and were then filtered through GF/C glass fiber filter pads using a Brandel M-24 cell harvester modified for receptor binding. After two 5 ml. rinses, the filter discs were put into scintillation vials and counted in 10 ml. of Amersham PCS scintillation fluid. Nonspecific binding of ^3 H-serotonin (^3 H-5HT) was determined in the presence of 10^-5 M serotonin and of ^3 H-spiperone in the presence of 10^-6 M LSD. Specific binding was calculated as the difference between total binding with no added nonradioactive compound and the nonspecific binding.

[4] = biological target: ^3 H-serotonin (^3 H-5HT) receptor binding, cerebral cortex; experiment: Inhibition of ^3 H-serotonin (^3 H-5HT) specific binding in rat cerebral cortex membranes; parameters: species or system male Wistar rats; conditions: ^3 H-serotonin 2-3 nM, 15 minutes at 37°, pH=7.4, values in nanomoles of inhibitor, read-out: ^3 H-Ligand-IC50, ^3 H-5HT
[5] = system: central serotonin (5HIAA in hypothalamus); experiment: Decrease of serotonin metabolite 5HIAA in hypothalamus as a measure of central serotonin agonist activity; type: in vivo, Wistar rats; conditions: 0.3 mg./kg. s.c., 1 hour before rats were killed; control 2.59 ± .11; * = statistically significant
Method: as §1, §2

[6] = Serum corticosteroids (corticosterone); type: in vivo, Wistar rats; conditions: 0.3 mg./kg. s.c., 1 hour before rats were killed; control 7 ± 1; * = statistically significant
Method: as §2

SMILES	dopamine agonist action (inhibiting dopamine uptake in bovine striatal membrane in vitro) [1]	Dopamine Metabolites In Striatum, HVA [2]	Dopamine Metabolites In Striatum, DOPAC [2]	pIC50 [3]	pIC50 [4]	5HIAA In Hypothalamus [5]	Serum Corticosterone [6] [MCG/100 ML]
CCCN(CCC)C1Cc2cccc3[nH]cc(c23)C1 (racemic) [(±)-4-(di-n-propyl)amino-1,3,4,5-tetrahydrobenz[c,d]indole]	selective dopamine agonist	–	–	–	–	–	–
CCCN(CCC)C1Cc2c[nH]c3ccc(C(N)=O)c(c23)C1 (racemic) [(±)-4-Di-n-propylamino-6-carbamoyl-1,3,4,5-tetrahydrobenz[c,d]indole]	–	4.12 ± .27 NMoles/G	6.23 ± .56 NMoles/G	5.30	7.22	1.58 ± .03 NMoles/G	49 ± 2
CCCN(CCC)C1Cc2c[nH]c3ccc(C#N)c(c23)C1 (racemic) [(±)-4-Di-n-propylamino-6-cyano-1,3,4,5-tetrahydrobenz[c,d]indole]	–	2.27 ± .16 NMoles/G	4.25 ± .25 NMoles/G	6.41	7.05	2.34 ± .07 NMoles/G	47 ± 4
CCCN(CCC)C1Cc2c[nH]c3ccc([N+](=O)[O-])c(c23)C1 (racemic) [(±)-4-Di-n-propylamino-6-nitro-1,3,4,5-tetrahydrobenz[c,d]indole]	–	2.02 ± .20 NMoles/G	3.74 ± .11 NMoles/G	6.40	7.00	2.29 ± .03 NMoles/G	49 ± 2
